This note sets out measurements from ChEMBL document CHEMBL1157209, “QSAR study on a novel series of 8-azaadenine analogues proposed as A1 adenosine receptor antagonists” (Eur J Med Chem, 2008).

Structures are written as SMILES.

By Ki is commonly meant the equilibrium dissociation constant of an inhibitor or competing ligand from its target. Read a low Ki as a stronger hold on the target.

This test deals with T1, Adenosine receptor A1 (Bos taurus, UniProt P28190).
T1 sequence (P28190 whole entry): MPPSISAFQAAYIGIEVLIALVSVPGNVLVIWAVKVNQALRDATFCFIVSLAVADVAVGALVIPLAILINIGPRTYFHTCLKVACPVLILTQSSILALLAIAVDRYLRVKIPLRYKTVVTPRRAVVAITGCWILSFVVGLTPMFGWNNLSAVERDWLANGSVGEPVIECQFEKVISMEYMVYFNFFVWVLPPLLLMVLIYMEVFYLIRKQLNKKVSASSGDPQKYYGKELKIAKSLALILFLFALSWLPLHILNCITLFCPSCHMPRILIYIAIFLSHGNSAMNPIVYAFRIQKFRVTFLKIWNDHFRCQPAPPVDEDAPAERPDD
Put plainly: Binding affinity to bovine adenosine A1 receptor.

For the molecule `c1ccc(Cn2nnc3c(NC4CCCCC4)nc(-c4ccccc4)nc32)cc1`, the affinity corresponds to a Ki of 1.6 nM.

Molecule `OC1CCC(Nc2nc(-c3ccccc3)nc3c2nnn3Cc2ccccc2)CC1` (stereo not drawn) gave a Ki of 2.7 nM. This Ki is about 1.7-fold higher than that of the molecule before. The molecule `OC1CCC(Nc2nc(-c3ccccc3)nc3c2nnn3Cc2ccccc2Cl)CC1` (stereo not drawn) showed a Ki of 3.1 nM.

`OC1CCC(Nc2nc(-c3ccccc3)nc3c2nnn3Cc2ccccc2F)CC1` (stereo not drawn) had a Ki of 1.85 nM. On to `COc1ccc(C(=O)Nc2nc(-c3ccccc3)nc3c2nnn3Cc2ccccc2F)cc1`, for which the inhibitory constant (Ki) is 21.9 nM. Compared with the last molecule, the Ki is about 12-fold higher. `COc1ccc(C(=O)Nc2nc(-c3ccccc3)nc3c2nnn3Cc2ccccc2)cc1` showed a Ki of 3.24 nM.

`O[C@H]1CCCC[C@@H]1Nc1nc(-c2ccccc2)nc2c1nnn2Cc1ccccc1` gave a Ki of 10.3 nM. As to `COc1ccc(C(=O)Nc2nc(-c3ccccc3)nc3c2nnn3Cc2ccccc2Cl)cc1`, the Ki was 20 nM.
